Source: ChEMBL document CHEMBL4622884, “Synthesis of novel 3,5,6-trisubstituted 2-pyridone derivatives and evaluation for their anti-inflammatory activity” (Bioorg Med Chem, 2020)
Activity calls are given as the source filed them. The rule behind the calls is not given here.

Assays:
Mus musculus [1] = experiment: Anti-inflammatory activity against croton oil-induced ear edema in Swiss mouse model assessed as inhibition of myeloperoxidase activity at 1.25 mg/ear administered topically immediately after croton oil-stimulation and measured after 6 hrs by microplate spectrophotometry relative to control; assay type: functional
Mus musculus [2] = experiment: Anti-inflammatory activity against croton oil-induced ear edema in Swiss mouse model assessed as inhibition of myeloperoxidase activity at 0.625 mg/ear administered topically immediately after croton oil-stimulation and measured after 6 hrs by microplate spectrophotometry relative to control; assay type: functional
[3] = Cytotoxicity against mouse L929 cells assessed as reduction in cell viability measured after 72 hrs by MTT assay; assay type: cell-based
Mus musculus [4] = experiment: Anti-inflammatory activity against croton oil-induced ear edema in Swiss mouse model assessed as inhibition of ear edema at 1.25 mg/ear administered topically immediately after croton oil-stimulation and measured after 6 hrs relative to control; assay type: functional
[5] = Cytotoxicity against mouse J774A1 cells assessed as reduction in cell viability measured after 48 hrs by MTT assay; assay type: cell-based, J774.A1
Mus musculus [6] = experiment: Anti-inflammatory activity against croton oil-induced ear edema in Swiss mouse model assessed as inhibition of ear edema at 0.625 mg/ear administered topically immediately after croton oil-stimulation and measured after 6 hrs relative to control; assay type: functional
[7] = target: T1, Prostaglandin G/H synthase 2 (Homo sapiens) (UniProt P35354); experiment: Inhibition of recombinant human COX-2 at 1.95 uM by microplate reader based assay relative to control
T1 sequence (whole entry): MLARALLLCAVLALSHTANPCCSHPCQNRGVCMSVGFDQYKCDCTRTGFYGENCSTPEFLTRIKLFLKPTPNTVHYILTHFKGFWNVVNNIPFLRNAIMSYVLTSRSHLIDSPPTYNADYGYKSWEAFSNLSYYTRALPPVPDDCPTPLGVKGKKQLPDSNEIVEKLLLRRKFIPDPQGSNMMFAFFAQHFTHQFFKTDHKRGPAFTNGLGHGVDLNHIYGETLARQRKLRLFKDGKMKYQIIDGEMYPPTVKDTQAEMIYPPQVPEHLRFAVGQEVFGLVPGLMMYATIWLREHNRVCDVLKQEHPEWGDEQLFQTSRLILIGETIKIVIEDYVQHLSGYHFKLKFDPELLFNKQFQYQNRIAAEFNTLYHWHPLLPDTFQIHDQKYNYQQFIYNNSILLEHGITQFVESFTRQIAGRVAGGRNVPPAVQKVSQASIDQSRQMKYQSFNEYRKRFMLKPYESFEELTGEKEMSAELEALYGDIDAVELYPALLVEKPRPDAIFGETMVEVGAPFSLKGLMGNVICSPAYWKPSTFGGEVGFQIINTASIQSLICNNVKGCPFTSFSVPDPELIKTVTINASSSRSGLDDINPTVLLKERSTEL

[8] = target: T1, Prostaglandin G/H synthase 2 (Homo sapiens); experiment: Inhibition of recombinant human COX-2 at 31.25 uM by microplate reader based assay relative to control
[9] = target: T2, COX-1 (Prostaglandin G/H synthase 1) (Ovis aries, UniProt P05979); experiment: Inhibition of ovine COX-1 at 31.25 uM by microplate reader based assay relative to control; details: sheep, ovine COX-1 enzyme
T2 sequence (P05979 whole entry): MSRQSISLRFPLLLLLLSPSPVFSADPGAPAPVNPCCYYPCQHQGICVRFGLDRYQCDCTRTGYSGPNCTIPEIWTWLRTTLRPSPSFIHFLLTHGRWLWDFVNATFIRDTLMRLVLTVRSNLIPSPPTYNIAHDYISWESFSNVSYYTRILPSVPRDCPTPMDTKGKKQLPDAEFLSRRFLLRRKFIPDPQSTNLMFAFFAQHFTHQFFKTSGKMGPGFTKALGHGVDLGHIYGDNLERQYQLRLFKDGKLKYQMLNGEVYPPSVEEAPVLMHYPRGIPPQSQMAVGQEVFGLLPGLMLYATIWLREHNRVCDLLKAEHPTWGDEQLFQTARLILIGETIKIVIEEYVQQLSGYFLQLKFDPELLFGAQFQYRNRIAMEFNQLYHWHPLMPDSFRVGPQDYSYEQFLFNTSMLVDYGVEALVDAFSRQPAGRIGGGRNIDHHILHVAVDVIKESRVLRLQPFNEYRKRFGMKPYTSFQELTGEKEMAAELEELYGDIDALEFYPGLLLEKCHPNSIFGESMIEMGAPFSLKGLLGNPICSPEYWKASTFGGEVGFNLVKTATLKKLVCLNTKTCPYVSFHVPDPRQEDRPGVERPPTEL

[10] = target: T2, COX-1 (Prostaglandin G/H synthase 1); experiment: Inhibition of ovine COX-1 at 1.95 uM by microplate reader based assay relative to control; details: sheep, ovine COX-1 enzyme
Mus musculus [11] = experiment: Anti-inflammatory activity against croton oil-induced ear edema in Swiss mouse model assessed as inhibition of ear edema at 1 mg/ear administered topically immediately after croton oil-stimulation and measured after 6 hrs relative to control; assay type: functional
Mus musculus [12] = experiment: Anti-inflammatory activity against croton oil-induced ear edema in Swiss mouse model assessed as inhibition of myeloperoxidase activity at 1 mg/ear administered topically immediately after croton oil-stimulation and measured after 6 hrs by microplate spectrophotometry relative to control; assay type: functional
Ovis aries = species: Ovis aries; experiment: Selectivity index, ratio of IC50 of ovine COX-1 to […]

In the case of CCOC(=O)c1[nH]c(=O)c(C(=O)O)cc1C(=O)c1ccc(Cl)cc1, the “inhibition (INH)” value (Mus musculus [1]) is reported as 93% and the “inhibition (INH)” value (Mus musculus [2]) is reported as 99%.
With CCOC(=O)c1[nH]c(=O)c(C#N)cc1C(=O)c1ccc(OC)cc1 the CC50 at 72 h [3] was 259 µM, the inhibition (Mus musculus [4]) was “Active” and the CC50 at 48 h [5] was less than 100 µM.
In the case of N#Cc1cc(C(=O)c2ccc(Cl)cc2)c(C(=O)O)[nH]c1=O, the “inhibition (INH)” value (Mus musculus [6]) is reported as 74.5% and the “inhibition (INH)” value (Mus musculus [2]) is reported as 84.5%.
For O=C(c1ccc(Cl)cc1)c1cc(C(=O)O)c(=O)[nH]c1C(=O)O, the “inhibition (INH)” value (Mus musculus [6]) was 84%, the “inhibition (INH)” value (Mus musculus [1]) was 99% and the “inhibition (INH)” value (Mus musculus [2]) was 89.4%. For the same molecule, the “inhibition (INH)” value (Mus musculus [4]) was 54.2%.
With CCOC(=O)c1[nH]c(=O)c(C#N)cc1C(=O)c1ccc([N+](=O)[O-])cc1 the “inhibition (INH)” value (Mus musculus [1]) was 99%, the CC50 at 72 h [3] was 213 µM and the “inhibition (INH)” value (Mus musculus [2]) was 99%. For the same molecule, the “inhibition (INH)” value (Mus musculus [4]) was 93% and the CC50 at 48 h [5] was less than 100 µM.
With N#Cc1cc(C(=O)c2ccc([N+](=O)[O-])cc2)c(C(=O)O)[nH]c1=O the “inhibition (INH)” value (Mus musculus [1]) was 97.6%, the “inhibition (INH)” value (Mus musculus [2]) was 99% and the “inhibition (INH)” value (Mus musculus [4]) was 64.6%.
With CCOC(=O)c1[nH]c(=O)c(C#N)cc1C(=O)c1ccc([N+](=O)[O-])cc1.CNC [listing 1 of 2 here] the inhibition [7] was 74% and the inhibition [8] was 10.1%.
With CCOC(=O)c1[nH]c(=O)c(C(=O)OCC)cc1C(=O)c1ccc([N+](=O)[O-])cc1 the “inhibition (INH)” value (Mus musculus [6]) was 66.3%, the “inhibition (INH)” value (Mus musculus [1]) was 99% and the “inhibition (INH)” value (Mus musculus [2]) was 99%. For the same molecule, the “inhibition (INH)” value (Mus musculus [4]) was 87.9%.
In the case of CCOC(=O)c1[nH]c(=O)c(C#N)cc1C(=O)c1ccc(Br)cc1, the CC50 at 72 h [3] is reported as 242 µM, the inhibition (Mus musculus [4]) is reported as “Active” and the CC50 at 48 h [5] is reported as less than 100 µM.
For CCOC(=O)c1[nH]c(=O)c(C#N)cc1C(=O)c1ccccc1, the CC50 at 72 h [3] was 465 µM, the inhibition (Mus musculus [4]) was “Active” and the CC50 at 48 h [5] was 215 µM.
With CCOC(=O)c1[nH]c(=O)c(C#N)cc1C(=O)c1ccc([N+](=O)[O-])cc1.CNC [listing 2 of 2 here] the inhibition at 31.25 µM [9] was 16.3%, the “inhibition (INH)” value (Mus musculus [6]) was 70% and the “inhibition (INH)” value (Mus musculus [1]) was 98.9%. For the same molecule, the CC50 at 72 h [3] was 257 µM, the “inhibition (INH)” value (Mus musculus [2]) was 99% and the “inhibition (INH)” value (Mus musculus [4]) was 98.9%. The CC50 at 48 h [5] was less than 100 µM.
O=C(c1ccc([N+](=O)[O-])cc1)c1cc(C(=O)O)c(=O)[nH]c1C(=O)O gave an inhibition at 1.95 µM [10] of 12.4%, an inhibition [7] of 20.2% and an inhibition at 31.25 µM [9] of 36.8%. The “inhibition (INH)” value (Mus musculus [6]) was 90.8%, the inhibition [8] was 38.1% and the “inhibition (INH)” value (Mus musculus [1]) was 94.3%. For the same molecule, the CC50 at 72 h [3] was 439 µM, the “inhibition (INH)” value (Mus musculus [2]) was 99.6% and the “inhibition (INH)” value (Mus musculus [4]) was 93%. The CC50 at 48 h [5] was 388 µM.
For COc1ccc2c(c1)c(CC(=O)O)c(C)n2C(=O)c1ccc(Cl)cc1 [INDOMETHACIN], the “inhibition (INH)” value (Mus musculus [11]) was 98.2% and the “inhibition (INH)” value (Mus musculus [12]) was 48%.
In the case of CCOC(=O)c1[nH]c(=O)c(C#N)cc1C(=O)c1ccc(Cl)cc1.CNC, the “inhibition (INH)” value (Mus musculus [6]) is reported as 70.1%, the “inhibition (INH)” value (Mus musculus [1]) is reported as 99.9% and the “inhibition (INH)” value (Mus musculus [2]) is reported as 99%. For the same molecule, the “inhibition (INH)” value (Mus musculus [4]) was 71.3%.
In the case of CCOC(=O)c1[nH]c(=O)c(C#N)cc1C(=O)c1ccc(Cl)cc1, the “inhibition (INH)” value (Mus musculus [1]) is reported as 99%, the CC50 at 72 h [3] is reported as 218 µM and the “inhibition (INH)” value (Mus musculus [2]) is reported as 99%. The “inhibition (INH)” value (Mus musculus [4]) was 73.9% and the CC50 at 48 h [5] was less than 100 µM.
Work on CS(=O)(=O)c1ccc(-c2cc(Cn3ccnc3)c3ccc(C4CCCCC4)c(C4CCCCC4)c3n2)cc1 yielded a Ratio IC50 (Ovis aries) of 548.
For CCOC(=O)c1[nH]c(=O)c(C(=O)OCC)cc1C(=O)c1ccc(Cl)cc1, the “inhibition (INH)” value (Mus musculus [1]) was 88.1% and the “inhibition (INH)” value (Mus musculus [2]) was 94.4%.
For CCOC(=O)c1[nH]c(=O)c(C#N)cc1C(=O)c1ccc(F)cc1, the CC50 at 72 h [3] was 232 µM, the inhibition (Mus musculus [4]) was “Active” and the CC50 at 48 h [5] was less than 100 µM.
With CCOC(=O)c1[nH]c(=O)c(C#N)cc1C(=O)c1ccc(C)cc1 the CC50 at 72 h [3] was 512 µM, the inhibition (Mus musculus [4]) was “Active” and the CC50 at 48 h [5] was 194 µM.
